pIC50: −log10 of the molar value. In brackets after ≈: the same amount, converted by molar mass.
Experiments:
[1] = Metabolic stability in human liver microsomes assessed as compound remaining at 1 uM after 30 mins; format: ADME, Microsome; conditions: read-out: Stability
[2] = Metabolic stability in mouse liver microsomes assessed as compound remaining at 1 uM after 30 mins; format: ADME, Microsome; conditions: read-out: Stability
[3] = target: T1, Serine/threonine-protein kinase PLK2 (Homo sapiens, UniProt Q9NYY3)
Description: Inhibition of GST-tagged Plk2 (unknown origin) assessed as inhibition of DEKTDDED phosphorylation at Thr1342 after 60 mins by TR-FRET assay

[4] = Metabolic stability in rat liver microsomes assessed as compound remaining at 1 uM after 30 mins; format: ADME, Microsome; conditions: read-out: Stability
[5] = target: Serine/threonine-protein kinase PLK1 (Homo sapiens, UniProt P53350); experiment: Inhibition of GST-tagged Plk1 (unknown origin) assessed as inhibition of DEKTDDED phosphorylation at Thr1342 after 60 mins by TR-FRET assay
[6] = Apparent permeability across apical to basolateral side in […] MDCK2 cells at 5 uM after 120 mins by LC/MS/MS analysis; format: ADME, cell-based, MDCK-II; conditions: MDCK
[7] = Solubility of the compound; format: physicochemical
[8] = Lipophilicity, log P of the compound; format: physicochemical; conditions: octanol/water
[9] = target: T1, Serine/threonine-protein kinase PLK2; remark: listed apart in the source
[10] = Plasma concentration in Sprague-Dawley rat at 200 mg/kg, po measured at 6 hrs; format: ADME, organism-based; set-up: dose 200 mg/kg, route oral
MDR1 = experiment: Efflux ratio of permeability across apical to basolateral side in […] MDCK cells expressing MDR1 at 5 uM after 120 mins by LC/MS/MS analysis; format: ADME, cell-based
Rattus norvegicus = experiment: Inhibition of Plk2-mediated phosphorylation of alpha-synuclein at Ser129 in Sprague-Dawley rat cerebral cortex at 100 to 200 mg/kg, po measured at 6 hrs by ELISA relative to control; format: functional; conditions: dose mg/kg 100-200
[11] = Drug uptake in Sprague-Dawley rat brain at 100 mg/kg, po measured at 6 hrs; format: ADME, organism-based; set-up: dose 100 mg/kg, route oral; conditions: read-out: Drug uptake
[12] = Ratio of drug level from brain to plasma in Sprague-Dawley rat at 100 mg/kg, po measured at 6 hrs; format: ADME, organism-based; set-up: dose 100 mg/kg, route oral; conditions: brain and plasma, read-out: BPR
[13] = Ratio of drug level from brain to plasma in Sprague-Dawley rat at 200 mg/kg, po measured at 6 hrs; format: ADME, organism-based; set-up: dose 200 mg/kg, route oral; conditions: brain and plasma, read-out: BPR
[14] = Plasma concentration in Sprague-Dawley rat at 100 mg/kg, po measured at 6 hrs; format: ADME, organism-based; set-up: dose 100 mg/kg, route oral
[15] = Drug uptake in Sprague-Dawley rat brain at 200 mg/kg, po measured at 6 hrs; format: ADME, organism-based; set-up: dose 200 mg/kg, route oral; conditions: read-out: Drug uptake

Serine/threonine-protein kinase PLK1, sequence (P53350 whole entry): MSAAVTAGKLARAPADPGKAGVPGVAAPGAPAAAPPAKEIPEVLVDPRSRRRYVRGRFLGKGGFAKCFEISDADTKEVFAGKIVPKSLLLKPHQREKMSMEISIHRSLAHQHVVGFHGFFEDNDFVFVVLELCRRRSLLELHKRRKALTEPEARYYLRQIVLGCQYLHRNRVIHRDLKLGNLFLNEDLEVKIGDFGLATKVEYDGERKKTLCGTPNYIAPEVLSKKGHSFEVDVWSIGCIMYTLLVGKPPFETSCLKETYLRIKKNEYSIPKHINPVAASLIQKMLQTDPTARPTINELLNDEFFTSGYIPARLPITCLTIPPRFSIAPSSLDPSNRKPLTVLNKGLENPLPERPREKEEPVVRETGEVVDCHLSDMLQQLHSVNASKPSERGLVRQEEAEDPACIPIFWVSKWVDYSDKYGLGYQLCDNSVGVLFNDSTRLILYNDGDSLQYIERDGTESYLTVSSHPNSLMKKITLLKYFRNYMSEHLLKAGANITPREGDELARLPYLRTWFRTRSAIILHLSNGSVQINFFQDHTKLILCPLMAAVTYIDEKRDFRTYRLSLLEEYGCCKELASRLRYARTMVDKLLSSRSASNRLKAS
T1 sequence (Q9NYY3 whole entry): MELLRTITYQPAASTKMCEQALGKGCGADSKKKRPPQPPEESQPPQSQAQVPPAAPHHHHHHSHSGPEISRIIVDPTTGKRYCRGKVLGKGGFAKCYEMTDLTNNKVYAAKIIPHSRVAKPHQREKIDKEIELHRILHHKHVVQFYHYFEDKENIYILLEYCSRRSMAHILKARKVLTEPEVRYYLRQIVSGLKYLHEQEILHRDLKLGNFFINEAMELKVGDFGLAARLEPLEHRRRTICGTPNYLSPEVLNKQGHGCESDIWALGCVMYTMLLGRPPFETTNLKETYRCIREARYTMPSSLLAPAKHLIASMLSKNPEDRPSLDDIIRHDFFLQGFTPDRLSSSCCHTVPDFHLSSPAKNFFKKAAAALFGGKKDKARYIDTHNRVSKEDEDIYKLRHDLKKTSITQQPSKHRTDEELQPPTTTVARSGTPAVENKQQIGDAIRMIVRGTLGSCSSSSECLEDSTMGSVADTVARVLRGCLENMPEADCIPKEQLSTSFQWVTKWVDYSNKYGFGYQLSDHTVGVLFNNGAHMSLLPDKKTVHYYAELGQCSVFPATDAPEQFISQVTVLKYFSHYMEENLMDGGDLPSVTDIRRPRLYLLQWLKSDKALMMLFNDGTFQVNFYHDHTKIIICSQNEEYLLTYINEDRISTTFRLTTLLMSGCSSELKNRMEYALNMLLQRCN

Row | Structure (SMILES) | remaining at 0.5 h, 1 µM [1] | remaining at 0.5 h, 1 µM [2] | pIC50 [3] | remaining at 0.5 h, 1 µM [4] | Papp A→B at 2 h, 5 µM [6] | logP ([8]; read-out: logP) | also measured
1 | CC[C@@H]1C(=O)N(C)c2cnc(-c3c[nH]nc3-c3ccc(F)cc3F)nc2N1c1cnn(C)c1 | 48% | 5% | 6.99 | 13% |  |  | 
2 | CC[C@@H]1C(=O)N(C)c2cnc(-n3ccnc3-c3ccccc3)nc2N1C1CCCC1 | 0% | 0% | 8.30 | 0% | 11.4 ×10⁻⁶ cm/s |  | solubility [7]: 100 µM (≈ 40.3 µg/mL)
3 | CC[C@@H]1C(=O)N(C)c2cnc(-c3c[nH]nc3-c3nccs3)nc2N1C(C)C | 38% | 33% |  | 38% | 18.3 ×10⁻⁶ cm/s |  | solubility [7]: 100 µM (≈ 38.3 µg/mL)
4 | CC[C@@H]1C(=O)N(C)c2cnc(-n3ccnc3-c3ccccc3)nc2N1C(C)C | 14% | 12% |  | 0% |  |  | logP [8]: Not Active
5 | CC[C@@H]1C(=O)N(C)c2cnc(-n3ccnc3-c3ccccc3)nc2N1CCC(F)(F)F | 0% | 2% |  | 0% |  | 3.1 | 
6 | CC[C@@H]1C(=O)N(C)c2cnc(-n3ccnc3-c3ccc(F)cc3)nc2N1CCC(F)(F)F | 27% | 32% |  | 30% | 15.8 ×10⁻⁶ cm/s | 3.1 | 
7 | CC[C@@H]1C(=O)N(C)c2cnc(-n3ccnc3-c3ccccc3)nc2N1[C@H]1CCOC1 | 17% | 51% |  | 13% |  | 1.9 | 
8 | CC[C@@H]1C(=O)N(C)c2cnc(-n3ccnc3-c3ccccc3)nc2N1[C@@H]1CCOC1 | 10% | 27% |  | 0% |  | 1.8 | 
9 | CC[C@@H]1C(=O)N(C)c2cnc(-n3ccnc3-c3ccccc3)nc2N1c1cncnc1 | 55% | 60% | 7.36 | 76% |  | 1.3 | 
10 | CC[C@@H]1C(=O)N(C)c2cnc(-c3cn[nH]c3-c3nccs3)nc2N1C1CCOCC1 | 47% | 44% |  | 39% | 18.9 ×10⁻⁶ cm/s |  | 
11 | CC[C@@H]1C(=O)N(C)c2cnc(-c3c[nH]nc3-c3nccs3)nc2N1[C@H]1CCOC1 | 51% | 47% | 7.41 | 39% | 16.8 ×10⁻⁶ cm/s |  | pIC50 [9]: 5.50
12 | CC[C@@H]1C(=O)N(C)c2cnc(-c3cn[nH]c3-c3nccs3)nc2N1c1cn[nH]c1 | 84% | 57% |  | 48% | 6.6 ×10⁻⁶ cm/s |  | 
13 | CCC1C(=O)N(C)c2cnc(-c3cn[nH]c3-c3ccccn3)nc2N1c1cnn(C)c1 (racemic) | 88% | 64% | 6.77 | 87% | 10.1 ×10⁻⁶ cm/s |  | 
14 | CN1C(=O)C(CC(F)(F)F)N(CCC(F)(F)F)c2nc(-n3ccnc3-c3ccc(F)cc3)ncc21 (racemic) | 15% | 42% |  | 30% |  |  | 
15 | CCC1C(=O)N(C)c2cnc(-n3ccnc3-c3ccccc3)nc2N1c1cncnc1 (racemic) |  |  |  |  | 12.2 ×10⁻⁶ cm/s |  | pIC50 [9]: 5.41
16 | CCC1C(=O)N(C)c2cnc(-n3ccnc3-c3ccccc3)nc2N1c1ccccc1 (racemic) | 21% | 28% | 7.77 | 5% |  | 3.3 | 
17 | CCC1C(=O)N(C)c2cnc(-n3ccnc3-c3ccc(F)cc3)nc2N1c1ccc(F)cc1 (racemic) | 47% | 41% |  | 11% |  | 3.4 | 
18 | CCC1C(=O)N(C)c2cnc(-n3ccnc3-c3ccc(F)cc3)nc2N1c1ccc(C#N)cc1 (racemic) | 63% | 49% | 7.51 | 48% |  | 2.7 | 
19 | CCC1C(=O)N(C)c2cnc(-c3cn[nH]c3-c3nccs3)nc2N1c1cnn(C)c1 (racemic) |  |  | 6.89 |  |  |  | 

Second part, led by results:

Row | remaining at 0.5 h, 1 µM [1] | remaining at 0.5 h, 1 µM [2] | pIC50 [3] | remaining at 0.5 h, 1 µM [4] | Papp A→B at 2 h, 5 µM [6] | logP ([8]; read-out: logP) | Structure (SMILES) | also measured
20 | 4% | 7% |  | 1% |  |  | CC(C)N1c2nc(-n3ccnc3-c3ccc(F)cc3)ncc2N(C)C(=O)C12CCC2 | 
21 | 54% | 25% | 5.57 | 10% |  |  | CC(C)N1c2nc(-n3ccnc3-c3ccc(F)cc3)ncc2N(C)C(=O)C1(C)C | pIC50 [5]: < 4.00
22 | 19% | 30% |  | 14% |  | 3 | CC[C@@H]1C(=O)N(C)c2cnc(-n3ccnc3-c3ccc(F)cc3)nc2N1C1CC(F)(F)C1 | 
23 | 74% | 74% | 5.98 | 80% |  | 1.6 | CC[C@@H]1C(=O)N(C)c2cnc(-n3ccnc3-c3ccc(F)cc3)nc2N1C1COC1 | pIC50 [5]: < 4.30
24 | 58% | 63% | 7.48 | 67% | 23.4 ×10⁻⁶ cm/s | 2 | CC[C@@H]1C(=O)N(C)c2cnc(-n3ccnc3-c3ccc(F)cc3)nc2N1[C@H]1CCOC1 | pIC50 [9]: 5.69
25 | 73% | 66% |  | 82% | 8.7 ×10⁻⁶ cm/s | 1.8 | CC[C@@H]1C(=O)N(C)c2cnc(-n3ccnc3-c3ccc(F)cc3)nc2N1c1cn[nH]c1 | 
26 | 69% | 50% |  | 86% | 21.2 ×10⁻⁶ cm/s | 2 | CC[C@@H]1C(=O)N(C)c2cnc(-n3ccnc3-c3ccc(F)cc3)nc2N1c1cnn(C)c1 | 
27 | 63% | 25% | 8.15 | 26% | 18.5 ×10⁻⁶ cm/s | 2.4 | CC[C@@H]1C(=O)N(C)c2cnc(-n3ccnc3-c3ccc(F)cc3)nc2N1c1ccn(C)n1 | concentration at 6 h [10]: 4880 ng/mL; efflux ratio at 2 h, 5 µM (MDR1): 1.1; inhibition (INH) (Rattus norvegicus): 41%; pIC50 [5]: 5.87; concentration at 6 h [11]: 5.2 µM; Kp at 6 h [12]: 0.36; pIC50 [9]: 6.32; Kp at 6 h [13]: 0.28; concentration at 6 h [14]: 6290 ng/mL; concentration at 6 h [15]: 3.2 µM
28 | 74% | 72% |  | 80% |  | 1.9 | CC[C@@H]1C(=O)N(C)c2cnc(-n3ccnc3-c3ccc(F)cc3)nc2N1c1ccnn1C | 
29 | 17% | 29% |  | 34% |  |  | CCC1(C)C(=O)N(C)c2cnc(-n3ccnc3-c3ccc(F)cc3)nc2N1CCC(F)(F)F (racemic) | 
30 | 6% | 15% |  | 8% |  | 3.1 | CCC1C(=O)N(C)c2cnc(-n3ccnc3-c3ccc(F)cc3)nc2N1C1CCC(F)(F)C1 (racemic) | 
31 | 72% | 67% | 8.05 | 65% | 13.2 ×10⁻⁶ cm/s | 2.2 | CCC1C(=O)N(C)c2cnc(-n3ccnc3-c3ccc(F)cc3)nc2N1c1cc[nH]n1 (racemic) | pIC50 [9]: 6.13
